# Reference: US7160700B2, “Glycosyltransferase genes” (International Flower Developments Proprietary Limited, priority 2000, dated 2007)
# Legend:
# [1] = biological target: T1, 3′GT (Gentiana triflora, UniProt Q8H0F2); test: Analysis of substrate specificity of purified 3′GT expressed in Escherichia coli (glucose transfer from UDP-glucose, HPLC); type: biochemical, gentian; conditions: compound used as substrate; for 3′GT activity to substrate (qualitative): purified sample of 3′GT from E. coli; for relative activity: activity to delphinidin 3,5-glucoside assumed to be 100%
# T1 construct: the region from the initiation methionine to poly A of pG3′GT7 was inserted in the NcoI/KpnI site of E. coli expression vector pQE61; made in house; host or cells: Escherichia coli JM105 (vector pQE61, plasmid pG3′Q1)
# T1 sequence (Q8H0F2 1-482): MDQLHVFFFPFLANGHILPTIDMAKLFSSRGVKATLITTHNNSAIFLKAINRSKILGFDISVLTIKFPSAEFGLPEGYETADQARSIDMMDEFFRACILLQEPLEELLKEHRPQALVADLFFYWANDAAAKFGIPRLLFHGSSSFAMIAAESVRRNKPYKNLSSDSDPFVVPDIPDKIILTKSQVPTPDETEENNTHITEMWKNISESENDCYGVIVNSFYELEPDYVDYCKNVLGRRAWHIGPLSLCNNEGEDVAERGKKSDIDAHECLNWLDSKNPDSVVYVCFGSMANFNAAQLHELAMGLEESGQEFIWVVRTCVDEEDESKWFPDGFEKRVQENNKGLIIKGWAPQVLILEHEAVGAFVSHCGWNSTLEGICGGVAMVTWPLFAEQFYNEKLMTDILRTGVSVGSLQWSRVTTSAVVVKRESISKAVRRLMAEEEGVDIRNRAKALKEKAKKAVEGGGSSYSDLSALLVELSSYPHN
# Protocol: (§1) 20 μl of the crude enzyme extract solution, 10 μl of 0.5M potassium phosphate (pH 8.5), 10 μl of 5 mM UDP-glucose, 10 μl of delphinidin 3,5-diglucoside (1.5 mg/ml) were mixed and maintained at 30° C. for 10 minutes. Then, following the procedure of Fujiwara et al. (Fujiwara et al. Plant J. (1998)), reaction was terminated, and the reaction product was analyzed using high performance liquid chromatography (HPLC). As a result, it was determined that gentian flower petals contain an enzyme having activity to transfer a glycosyl group to the 3′-position of an anthocyanin.
# Using the PCR method, an NcoI site was introduced so as to coincide with the initiation methionine codon of pG3′GT7, and the region from the initiation methionine to poly A of pG3′GT7 was inserted in the NcoI/KpnI site of E. coli expression vector pQE61 (QIAGEN). The obtained E. coli expression vector was denoted by pG3′Q1. pG3′Q1 was introduced into the Escherichia coli JM105 strain, and after preculturing overnight at 37° C., a part of the precultured medium was innoculated into 8 L of a main culture medium, and was cultured at 27° C. until OD600=0.6. To induce expression of the 3′GT gene, IPTG was added so as to reach a final concentration of 0.4 mM, and was cultured overnight at 27° C. After cells were collected, washed, and suspended in 400 ml of crushing buffer (25 mM Tris-HCl (pH 7.5), 250 mM NaCl, 1 mM EDTA, 0.5% β-mercaptoethanol), the cells were disrupted by ultrasonic treatment. After centrifuging, the resultant supernatant was subjected to processing with DE52, and a 40–70% ammonium sulfate precipitate fraction was recovered. After desalting, the crude protein solution was loaded onto a DEAE-TOYOPEARL (Toso Co.) preequilibrated with buffer C (25 mM Tris-HCl (pH 7.5), 0.5% β-mercaptoethanol), and was eluted with buffer C containing 0–0.5 M NaCl. The active fraction was recovered, adsorbed to BlueA (Amicon Co.) equilibrated buffer C, and was eluted with a linear gradient formed with the buffer C and the buffer C containing 2 M NaCl. The obtained active fraction was used in the reaction, to be described later, as a purified sample of the 3′GT portion.
# Using the purified sample of the 3′GT portion obtained in Example 6, the substrate-specificity of the 3′GT was analyzed. […] Assuming the relative activity to delphinidin 3,5-glucoside to be 100%, the activity to delphinidin 3-glucosyl-5-caffeoylglucoside is about 50%. Trace amount of products (1% or less) were also observed using delphinidin or delphinidin 3-diglucoside as a substrate. From retention time of HPLC and the absorption spectrum, the reaction product is considered to be a substrate having a glycosyl group added to the 3′-position thereof.
# [2] = biological target: T2, protein which has activity to transfer a glycosyl group to the 3′-position of anthocyanins (Gentiana triflora, UniProt Q8H0F2); test: Enzyme activity of extract from yeast transformed with pYG3′GT7 (measured as in Example 1, HPLC); type: biochemical, gentian; conditions: compound used as substrate
# T2 construct: A DNA fragment of approximately 1.6 kbp, which was obtained by digestion of pG3′GT7 with XhoI, was recovered; made in house; extract after glass-bead disruption
# T2 sequence (Q8H0F2 1-482): T1 sequence (Q8H0F2 1-482)
# Protocol: as §1
# A DNA fragment of approximately 1.6 kbp, which was obtained by digestion of pG3′GT7 with XhoI, was recovered. This DNA was ligated to a DNA fragment obtained by digesting pYE22m with SaII, and the obtained plasmid that has the initiation codon nearer to the promotor on pYE22m was denoted by pYG3′GT7. pYE22m was constructed according to the method as set forth in Japanese Patent Publication No. 4-228078. This plasmid was introduced into yeast cells to obtain transformed yeast cells. After the yeast cells were cultured and disrupted with glass beads, enzyme activity was measured as in Example 1 using delphinidin 3,5-diglucoside as substrate.
# No activity was found in the yeast in which the plasmid was not introduced. When cyanidin 3,5-diglucoside was used as substrate, no new peak was produced.
Compound,3′GT activity to substrate (qualitative) [1],activity for adding a glycosyl group to substrate (qualitative) [2],relative activity [1]
"OC[C@H]1O[C@@H](Oc2cc3c(O[C@@H]4O[C@H](CO)[C@@H](O)[C@H](O)[C@H]4O)cc(O)cc3[o+]c2-c2ccc(O)c(O)c2)[C@H](O)[C@@H](O)[C@@H]1O [cyanidin 3,5-diglucoside]",not,exhibits no activity,–
"OC[C@H]1O[C@@H](Oc2cc3c(O[C@@H]4O[C@H](CO)[C@@H](O)[C@H](O)[C@H]4O)cc(O)cc3[o+]c2-c2cc(O)c(O)c(O)c2)[C@H](O)[C@@H](O)[C@@H]1O [delphinidin 3,5-diglucoside]",exhibits activity,exhibits activity,100%
delphinidin 3-glucosyl-5-caffeoylglucoside,exhibits activity,–,about 50%
